This note sets out measurements from patent US20210015819A1, “METHODS FOR TREATMENT OF CANCERS WITH EGFR ACTIVATING MUTATIONS” (Board of Regents, The University of Texas System, priority 2018, published 2021).

For this assay, the system named is YUL0019 PR8 cells. Briefly: Drug sensitivity of poziotinib resistant YUL0019 cells (FIG. 8). In kind it is cell-based.

Where two headings read alike, the source gives them in different places.

On to `C=CC(=O)N1CCC(Oc2cc3c(Nc4ccc(Cl)c(Cl)c4F)ncnc3cc2OC)CC1` [poziotinib, 1-[4-[4-(3,4-dichloro-2-fluoroanilino)-7-methoxyquinazolin-6-yl]oxypiperidin-1-yl]prop-2-en-1-one], for which the “Sensitivity of YUL0019 PR8 (poziotinib resistant) cells” value (“Sensitivity of YUL0019 PR8” below) is given as “resistant”.

With `CN1CC[C@H](c2c(O)cc(O)c3c(=O)cc(-c4ccccc4Cl)oc23)[C@H](O)C1` [Alvocidib], the “Sensitivity of YUL0019 PR8” value is on record as “highly sensitive”.

On to `Cc1ccc(C(=O)N(CCCN)[C@@H](c2nc3cc(Cl)ccc3c(=O)n2Cc2ccccc2)C(C)C)cc1` [Ispinesib], for which the “Sensitivity of YUL0019 PR8” value is on record as “highly sensitive”. In addition, under “listed as ispinasib”, the “Sensitivity of YUL0019 PR8” value was “sensitive”.

As to `Cc1csc(-c2nnc(Nc3ccc(Oc4ncccc4-c4ccnc(N)n4)cc3)c3ccccc23)c1` [AMG 900], the “Sensitivity of YUL0019 PR8” value was “sensitive” (listed as AMG900) and “highly sensitive” (listed as AMG-900).

Turning to `CC[C@@H]1C(=O)N(C)c2cnc(Nc3ccc(C(=O)N[C@H]4CC[C@H](N5CCN(CC6CC6)CC5)CC4)cc3OC)nc2N1C(C)C` [BI6727 (Volasertib)], the “Sensitivity of YUL0019 PR8” value is given as “highly sensitive”.

As to `COc1cc(Nc2ncc3c(n2)-c2ccc(Cl)cc2C(c2c(F)cccc2OC)=NC3)ccc1C(=O)O` [MLN8237 (Alisertib)], the “Sensitivity of YUL0019 PR8” value is given as “sensitive” (listed as Alisertib) and “highly sensitive” (listed as alisertib).
